# Assay results taken from article PMC6934184, “Selective DNA-PKcs inhibition extends the therapeutic index of localized radiotherapy and chemotherapy” (The Journal of Clinical Investigation, 2019).
# Molecular target: T1, TGFBR2 (Homo sapiens, UniProt P37173)
# T1 construct: purchased Thermo Fisher Scientific (Life Technologies) SelectScreen
# Experiment: SelectScreen LanthaScreen
# Type: binding
# Conditions: read-out: % displacement
# How it was run: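 NU5455 was profiled across the SelectScreen Broad panel of kinase activity and binding assays. Z'LYTE reactions such as CSF1R ran at apparent Km ATP, while the Adapta CAMK1 assay used ATP listed as 10. Values are given as percent.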
# T1 sequence (P37173 23-567): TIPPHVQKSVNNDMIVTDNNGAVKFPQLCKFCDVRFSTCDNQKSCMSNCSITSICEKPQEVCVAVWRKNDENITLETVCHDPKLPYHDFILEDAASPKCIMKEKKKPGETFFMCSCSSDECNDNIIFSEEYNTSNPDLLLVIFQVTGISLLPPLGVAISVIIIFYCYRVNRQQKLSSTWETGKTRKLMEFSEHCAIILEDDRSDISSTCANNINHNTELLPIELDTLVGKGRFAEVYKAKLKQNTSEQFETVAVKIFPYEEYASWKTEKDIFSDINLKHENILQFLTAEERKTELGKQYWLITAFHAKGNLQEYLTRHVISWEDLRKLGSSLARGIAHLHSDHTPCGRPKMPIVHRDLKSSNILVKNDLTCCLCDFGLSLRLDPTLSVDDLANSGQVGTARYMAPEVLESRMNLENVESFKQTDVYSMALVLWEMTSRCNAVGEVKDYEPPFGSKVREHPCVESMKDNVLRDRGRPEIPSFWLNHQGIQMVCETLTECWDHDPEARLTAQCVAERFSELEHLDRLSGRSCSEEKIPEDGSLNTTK
structure (smiles),measurement,value
CN(C(=O)CN1CCOCC1)c1ccc2sc3c(-c4cccc5c(=O)cc(N6CC7CCC(C6)O7)oc45)cccc3c2c1 [NU5455],inhibition at 1 µM,-0.1%
